In series [1] the test system is S. aureus ATCC15975 (MRSA). Kind of series: Time-killing assay. The settings on record: for killing kinetics / capacity, in words: 10 × MIC (brevibacillins 20 μg/ml; nisin 40 μg/ml). In kind it is cell-based, Staphylococcus aureus. The method, then:
This assay was performed according to a previously described procedure ([Ling et al., 2015]; [Zhao et al., 2020b]). An overnight culture of cells [S. aureus ATCC15975 (MRSA)] was diluted 50-fold in MHB and incubated at 37°C with aeration at 220 rpm. Bacteria were grown to an OD600 of 0.5, and then, the concentration of cells was adjusted to ≈ 5 × 10^6 cells per ml. Bacteria were then challenged with nisin (40 μg/ml), brevibacillin (20 μg/ml), brevibacillin V (20 μg/ml), brevibacillin I (20 μg/ml), or brevibacillin 2V (20 μg/ml) in culture tubes at 37°C and 220 rpm (peptides at 10 × MIC, a desirable concentration at the site of infection). Bacteria not treated with peptides were used as negative controls. At desired time points, 200 μl aliquots were taken, centrifuged at 8,000 g for 2 min, and resuspended in 200 μl of MHB. 10-fold serially diluted samples were plated on MHA plates. After incubated at 37°C overnight, colonies were counted and c.f.u. per ml was calculated. Each experiment was performed in triplicate.

A short description of series [2]: Circular dichroism assay, 7-Lipid II. In kind it is binding. The settings on record: 10 mM boric acid-NaOH pH 7.5, 0.1% CHAPS, 20°C; for conformational change in presence of DOPC: antibiotic 50 μM, DOPC vesicles 100 μM; for conformational change in presence of 7-Lipid II: antibiotic and 7-Lipid II 50 μM. The method, then: Lipid II and 7-Lipid II (a heptaprenyl version of Lipid II) were synthesized and purified as described in a previous study ([Breukink et al., 2003]; Figures 2A,B). Purified Lipid II and 7-Lipid II were dissolved in CHCl3/MeOH (2:1) and stored at −20°C until use, and the concentration was determined after destruction to inorganic phosphate according to [Rouser et al. (1970)]. 7-Lipid II was only used in circular dichroism assays, while wild-type Lipid II was used in all of the other assays.
7-Lipid II and 1,2-dioleoyl-sn-glycero-3-phosphocholine (DOPC) were resuspended in 10 mm boric acid-NaOH pH 7.5 containing 0.1% CHAPS. The final concentration of antibiotics and 7-Lipid II was adjusted to 50 μm, while a 100 μm final concentration of DOPC vesicles was used. After added the samples to a quartz cuvette with a path length of 1 mm, the CD spectra were recorded with a Jasco-810 CD spectropolarimeter at 20°C. The ellipticity was recorded between 185 nm and 260 nm at a 0.2-nm step size with 1-s response time. The spectra were averaged over five recordings with a scanning speed of 50 nm/min.
(In general: Circular dichroism is widely used to follow secondary structure.)

Series [3] is described as follows: Isothermal titration calorimetry. The series is classed as binding. The settings on record: Figure 5; DOPC LUVs with 2 mol % Lipid II titrated into 50 μM peptide, 10 mM Tris-HCl, 100 mM NaCl, pH 8, 25°C. Here is the method: LUVs containing Lipid II (2%, mol/mol) were prepared by mixing the appropriate volumes of Lipid II and DOPC stock solutions in CHCl3/MeOH (2:1, v/v). The lipid solutions were dried by a nitrogen stream and hydrated with 10 mm Tris-HCl, 100 mm NaCl, and pH 8 buffer to a lipid-phosphate concentration of ~ 20 mm. LUVs were obtained after 10 times freeze-thaw cycles followed by 10 rounds of extrusion through 200 nm membrane filters (Whatman Nuclepore, Track-Etch Membranes). The concentration of lipid-phosphate was determined as described ([Rouser et al., 1970]).
Isothermal titration calorimetry was performed with the Low Volume Nano ITC (Waters LLC, New Castle, DE, United States) to determine the interaction between LUVs and brevibacillins. Brevibacillins were diluted in a buffer (10 mm Tris-HCl, 100 mm NaCl, and pH 8) to a final concentration of 50 μm. Samples were degassed before use. The chamber was filled with 177 μl of the brevibacillins solutions, and the LUVs were titrated into the chamber at a rate of 2 μl/300 s with a stirring rate of 300 rpm. Experiments were performed at 25°C. Control experiments were performed with Lipid II-free LUVs. The Kd values of brevibacillins to Lipid II were calculated using the Nano Analyze Software (Waters LLC).
For orientation: ITC needs no label: the signal is the heat of the interaction.

Series [4] is described as follows: 31P solid-state NMR of Lipid II in liposomes. In kind it is binding. The settings on record: combined ssNMR, CD and ITC assays. Here is the method: Multi-lamellar vesicles of DOPC doped with 2 mol % Lys-Lipid II in buffer (20 mm HEPES, 100 mm NaCl, and pH = 8) were collected by centrifugation (60,000 × g) and loaded into 3.2 mm ssNMR rotors. For 3.2 mm rotors, we used 200 nmol of antibiotic with 100 nmol of Lipid II. The 1D ^31P ssNMR experiments were performed at 500 MHz (^1H frequency) magnetic field using 10 kHz magic angle spinning (MAS) at 270 K sample temperature.

Series [5] has as its system HepG2. To be noted: Figure 1, ref Zhao et al., 2021; cited from earlier work. The text has this: (§1) A vast number of bacterial non-ribosomally produced peptides (NRPs) have shown strong antimicrobial activity against pathogenic bacteria ([Cochrane et al., 2014]; [Cociancich et al., 2015]; [Hamamoto et al., 2015]; [Ling et al., 2015]; [Süssmuth and Mainz, 2017]). Lipo-tridecapeptides, a class of NRPs, show strong antimicrobial activity against Gram-positive pathogens, including antibiotic-resistant Staphylococcus aureus and Enterococcus spp. ([Barsby et al., 2001], [2006]; [Yang et al., 2016]; [Wu et al., 2019]; [Zhao et al., 2021]). However, many of these lipo-tridecapeptides have shown high ... || Figure 1 Structures of brevibacillins. The red color indicates the more hydrophobic amino acid residues of brevibacillin V, brevibacillin and brevibacillin I relative to brevibacillin 2V. MIC, the minimum inhibitory concentration against Staphylococcus aureus (MRSA). HC50, the 50% human blood cell hemolysis concentration. CC50, the 50% cell (HepG2) toxicity concentration.

Series [6] concerns human red blood cells. To be noted: 2021, cited from earlier work; for HC50, 50% human blood cell hemolysis concentration: Figure 1, ref Zhao et al.
Description: as §1

Series [7] concerns membrane of Gram-positive bacteria. To be noted: ref Yang et al., 2017; cited from earlier work. The text has this:
A vast number of bacterial non-ribosomally produced peptides (NRPs) have shown strong antimicrobial activity against pathogenic bacteria ([Cochrane et al., 2014]; [Cociancich et al., 2015]; [Hamamoto et al., 2015]; [Ling et al., 2015]; [Süssmuth and Mainz, 2017]). Lipo-tridecapeptides, a class of NRPs, show strong antimicrobial activity against Gram-positive pathogens, including antibiotic-resistant Staphylococcus aureus and Enterococcus spp. ([Barsby et al., 2001], [2006]; [Yang et al., 2016]; [Wu et al., 2019]; [Zhao et al., 2021]). However, many of these lipo-tridecapeptides have shown high ...

For the substance Brevibacillin 2V, the “killing kinetics / capacity, in words” value in series [1] (MHB, 37°C) was “slowest killing capacity among brevibacillins, with similar killing kinetics as nisin”. Further, in series [1] (S. aureus (MRSA), 10 × MIC), the “bactericidal or bacteriostatic action” value is reported as “bactericidal antimicrobial agent”. Moreover, in series [2], the “conformational change in presence of DOPC” value is given as “no change was apparent” and the “conformational change in presence of 7-Lipid II” value is reported as “significant conformational change”. Binding in series [3] was put at a Kd of 7.89 µM. Further, the “Lipid II binding site” value in series [4] is recorded as “binds to the GlcNAc-MurNAc moiety and/or the pentapeptide of Lipid II”. In addition, in series [5], the “CC50, 50% cell (HepG2) toxicity concentration” value was 45.49 ± 0.24 mg/L and the “cytotoxicity relative to the other brevibacillins” value is recorded as “much lower cytotoxicity than the other brevibacillins”. Besides, the hemolytic activity result in series [6] (128 mg/L, ref Zhao et al.) is “no hemolytic activity”. Besides, the “HC50, 50% human blood cell hemolysis concentration” value in series [6] is listed as > 128 mg/L.

For Brevibacillin, in series [1] (MHB, 37°C), the “killing kinetics / capacity, in words” value was “intermediate killing capacity”. In addition, the “time to complete killing of all cells” value in series [1] (10 × MIC (nisin 40 μg/ml; brevibacillins 20 μg/ml), ≈ 5 × 10^6 cells per ml, MHB, 37°C, 220 rpm, triplicate) is ≤ 2 h. In series [2], the “conformational change in presence of DOPC” value was “no change was apparent” and the “conformational change in presence of 7-Lipid II” value is recorded as “significant conformational change”. Besides, the Kd (usually a measure of binding affinity in units of concentration) in series [3] came to 0.869 µM. Besides, the “CC50, 50% cell (HepG2) toxicity concentration” value in series [5] is 5.21 ± 0.01 mg/L. The “HC50, 50% human blood cell hemolysis concentration” value in series [6] was 25.1 ± 0.1 mg/L. Further, the membrane permeabilization result in series [7] is given as “can permeabilize the membrane of Gram-positive bacteria”.

These data come from PMC8322648, “Brevibacillin 2V Exerts Its Bactericidal Activity via Binding to Lipid II and Permeabilizing Cellular Membranes” (Frontiers in Microbiology, 2021).
